# Assays:
# [1] = system: advanced solid malignancies carrying an alteration in the PIK3CA gene; assay: Phase I clinical trial, single agent treatment, radiologic response (RECIST 1.0); assay type: in vivo, human; conditions: out of 131 patients evaluable for radiologic response, as of Mar. 10, 2014
# Source text: (§1) (hereinafter, “Compound I”). […] As of Mar.
# [2] = system: PIK3CA-mutant or amplified tumor xenograft models; assay: In vivo antitumor activity in tumor xenograft models; conditions: xenograft models such as breast, head and neck, and ovarian cancers
# Source text: as §1
compound,measurement,setting,value
"Cc1nc(NC(=O)N2CCC[C@H]2C(N)=O)sc1-c1ccnc(C(C)(C)C(F)(F)F)c1 [Compound I, (S)-Pyrrolidine-1,2-dicarboxylic acid 2-amide 1-({4-methyl-5-[2-(2,2,2-trifluoro-1,1-dimethyl-ethyl)-pyridin-4-yl]-thiazol-2-yl}-amide)]",patients with partial response to treatment,[1]; PIK3CA-altered solid tumors,15 patients
same,patients with stable disease,[1],68 patients
same,in vivo antitumor activity,[2],dose-dependent antitumor activity
